Our source for the IC50 values is patent US20090221599A1, “PHTHALAZINONE PYRAZOLE DERIVATIVES, THEIR MANUFACTURE AND USE AS PHARMACEUTICAL AGENTS” (priority 2006, published 2009).

One experiment has as its system HCT 116 cells. Description: CellTiter-Glo assay in HCT 116 cells. Format: cell-based. To be noted: HCT 116 human colon carcinoma cells, 5 days, CellTiter-Glo cell viability. The procedure:
The CellTiter-Glo™ Luminescent Cell Viability Assay (Promega) is a homogeneous method of determining the number of viable cells in culture based on quantitation of the ATP present, which signals the presence of metabolically active cells.
HCT 116 cells (human colon carcinoma, ATCC-No. CC1-247) were cultivated in RPMI 1640 medium with GlutaMAX™ I (Invitrogen, Cat-No. 61870-010), 2.5% Fetal Calf Serum (FCS, Sigma Cat-No. F4135 (FBS)); 100 Units/ml penicillin/100 μg/ml streptomycin (=Pen/Strep from Invitrogen Cat. No. 15140). For the assay the cells were seeded in 384 well plates, 1000 cells per well, in the same medium. The next day the test compounds were added in various concentrations ranging from 30 μM to 0.0015 μM (10 concentrations, 1:3 diluted). After 5 days the CellTiter-Glo™ assay was done according to the instructions of the manufacturer (CellTiter-Glo™ Luminescent Cell Viability Assay, from Promega). In brief: the cell-plate was equilibrated to room temperature for approximately 30 minutes and than the CellTiter-Glo™ reagent was added. The contents were carefully mixed for 15 minutes to induce cell lysis. After 45 minutes the luminescent signal was measured in Victor 2, (scanning multiwell spectrophotometer, Wallac).
1st. day: • Medium: RPMI 1640 with GlutaMAX™ I (Invitrogen, Cat-No. 61870), 5% FCS (Sigma Cat.-No. F4135), Pen/Strep (Invitrogen, Cat No. 15140). • HCT116 (ATCC-No. CC1-247): 1000 cells in 60 μl per well of 384 well plate (Greiner 781098, μClear-plate white) • After seeding incubate plates 24 h at 37° C., 5% CO2 2nd. day: Induction (Treatment with compounds, 10 concentrations):
In order to achieve a final concentration of 30 μM as highest concentration 3.5 μl of 10 mM compound stock solution were added directly to 163 μl media. Then step e) of the dilution procedure described below, was followed.
In order to achieve the second highest to the lowest concentrations, a serial dilution with dilution steps of 1:3 was followed according to the procedure (a-d) as described here below: • a) for the second highest concentration add 10 μl of 10 mM stock solution of compound to 20 μl dimethylsulfoxide (DMSO) • b) dilute 8× 1:3 (always 10 μl to 20 μl DMSO) in this DMSO dilution row (results in 9 wells with concentrations from 3333.3 μM to 0.51 μM) • c) dilute each concentration 1:47.6 (3.5 μl compound dilution to 163 μl media) • d) add 10 μl of every concentration to 60 μl media in the cell plate resulting in final concentration of DMSO: 0.3% in every well and resulting in 10 final concentration of compounds ranging from 30 μM to 0.0015 μM. • Each compound is tested in triplicate. • Incubate 120 h (5 days) at 37° C., 5% CO2
• Add 30 μl CellTiter-Glo™ Reagent (prepared from CellTiter-Glo™ Buffer and CellTiter-Glo™ Substrate (lyophilized) purchased from Promega) per well, • shake 15 minutes at room temperature • incubate further 45 minutes at room temperature without shaking
• Victor 2 scanning multiwell spectrophotometer (Wallac), Luminescence mode (0.5 sec/read, 477 nm) • Determine IC50 using a non-linear curve fit (XLfit software (ID Business Solution Ltd., Guilford, Surrey, UK))
(In ATP-based viability assays light output follows the ATP content of the culture.)

A further experiment concerns the target T1, mutant Aurora A kinase (Homo sapiens, UniProt O14965).
T1 sequence (O14965 1-403): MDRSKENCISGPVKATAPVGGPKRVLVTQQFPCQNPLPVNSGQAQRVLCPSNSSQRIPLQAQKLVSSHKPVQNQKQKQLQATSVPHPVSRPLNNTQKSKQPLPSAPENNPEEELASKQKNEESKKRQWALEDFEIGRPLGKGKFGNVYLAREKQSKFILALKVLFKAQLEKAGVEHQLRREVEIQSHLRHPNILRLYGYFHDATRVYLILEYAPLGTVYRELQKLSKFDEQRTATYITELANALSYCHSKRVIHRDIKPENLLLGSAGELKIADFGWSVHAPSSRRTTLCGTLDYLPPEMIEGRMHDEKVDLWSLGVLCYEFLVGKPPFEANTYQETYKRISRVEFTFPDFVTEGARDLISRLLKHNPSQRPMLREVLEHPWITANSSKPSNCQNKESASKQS
In words: IC50 determination for inhibitors of Aurora A (ELISA, GST-Histone H3 substrate). It is filed as biochemical. As to conditions: 30 μM ATP, 40 minutes, read-out: IC50 Aurora A kinase inhibition. The procedure: Aurora A is a serine threonine kinase involved in spindle assembly and chromosome segregation.
The assay is a typically ELISA-type assay where substrate (GST-Histone H3) is coupled to the assay-plate and is phosphorylated by the kinase. Phosphorylation is detected by a mouse anti-Phosphopeptid mAb and an HRP-labeled anti-mouse pAb. The assay is validated for IC50-determination.
Kinase activities were measured by Enzyme-Linked Immunosorbent Assay (ELISA): Maxisorp 384-well plates (Nunc) were coated with recombinant fusion protein comprising residues 1-15 of Histone H3 fused to the N-terminus of Glutathione-S-Transferase. Plates were then blocked with a solution of 1 mg/mL I-block (Tropix cat# T2015—highly purified form of casein) in phosphate-buffered saline. Kinase reactions were carried out in the wells of the ELISA plate by combining an appropriate amount of mutant Aurora A kinase with test compound and 30 μM ATP. The reaction buffer was 10× Kinase Buffer (Cell Signaling cat #9802) supplemented with 1 μg/mL I-block. Reactions were stopped after 40 minutes by addition of 25 mM EDTA. After washing, substrate phosphorylation was detected by addition of anti-phospho-Histone H3 (Ser 10) 6G3 mAb (Cell Signaling cat #9706) and sheep anti-mouse pAb-HRP (Amersham cat# NA931V), followed by calorimetric development with TMB (3,3′,5,5′-tetramethylbenzidine from Kirkegaard & Perry Laboratories). After readout of the absorbance, IC50 values were calculated using a non-linear curve fit (XLfit software (ID Business Solution Ltd., Guilford, Surrey, UK)).
A general note: In an ELISA, binding on a coated surface is turned into a signal by an enzyme label.

In the case of `CSCCOc1ccc2c(Nc3cc(C)[nH]n3)nn(C(C)C)c(=O)c2c1` [Example A-1, 2-Isopropyl-4-(5-methyl-1H-pyrazol-3-ylamino)-7-(2-methylsulfanyl-ethoxy)-2H-phthalazin-1-one], in the experiment on HCT 116 cells (Homo sapiens, HCT-116, 120 h), the IC50 is 216 nM.
For the compound `COCCOc1ccc2c(Nc3cc(C)[nH]n3)nn(C(C)C)c(=O)c2c1` [Example A-2, 2-Isopropyl-7-(2-methoxy-ethoxy)-4-(5-methyl-1H-pyrazol-3-ylamino)-2H-phthalazin-1-one], in the experiment on HCT 116 cells (Homo sapiens, HCT-116, 120 h), the IC50 is 50 to 500 nM.
As to `Cc1cc(Nc2nn(C(C)C)c(=O)c3cc(OCCCS(=O)(=O)N(C)C)ccc23)n[nH]1` [Example A-3, 3-[3-Isopropyl-1-(5-methyl-1H-pyrazol-3-ylamino)-4-oxo-3,4-dihydro-phthalazin-6-yloxy]-propane-1-sulfonic acid dimethylamide], the IC50 in the experiment on HCT 116 cells (Homo sapiens, HCT-116, 120 h) was in the range of 50 to 500 nM.
As for `Cc1cc(Nc2nn(C(C)C)c(=O)c3cc(OCCCS(=O)(=O)N4CCOCC4)ccc23)n[nH]1` [Example A-4, 2-Isopropyl-4-(5-methyl-1H-pyrazol-3-ylamino)-7-[3-(morpholine-4-sulfonyl)-propoxy]-2H-phthalazin-1-one], the 50% inhibitory concentration (IC50) at mutant Aurora A kinase is 10 nM; in the experiment on HCT 116 cells (Homo sapiens, HCT-116, 120 h) it was 791 nM.
With `Cc1cc(Nc2nn(C(C)C)c(=O)c3cc(OCCN(C)C)ccc23)n[nH]1` [Example A-5, 7-(2-Dimethylamino-ethoxy)-2-isopropyl-4-(5-methyl-1H-pyrazol-3-ylamino)-2H-phthalazin-1-one], the IC50 at mutant Aurora A kinase was found to be 22 nM.
As for `Cc1cc(Nc2nn(C(C)C)c(=O)c3cc(OCCS(C)(=O)=O)ccc23)n[nH]1` [Example A-7, 2-Isopropyl-7-(2-methanesulfonyl-ethoxy)-4-(5-methyl-1H-pyrazol-3-ylamino)-2H-phthalazin-1-one], the IC50 in the experiment on HCT 116 cells (Homo sapiens, HCT-116, 120 h) is 50 to 500 nM.
In turn, `CSCCN(C)c1ccc2c(Nc3cc(C)[nH]n3)nn(C(C)C)c(=O)c2c1` [Example B-1, 2-Isopropyl-7-[methyl-(2-methylsulfanyl-ethyl)-amino]-4-(5-methyl-1H-pyrazol-3-ylamino)-2H-phtalazin-1-one] yielded an IC50 with HCT 116 cells of 92 nM.
In the experiment on HCT 116 cells (Homo sapiens, HCT-116, 120 h), `COCCN(C)c1ccc2c(Nc3cc(C)[nH]n3)nn(C(C)C)c(=O)c2c1` [Example B-2, 2-Isopropyl-7-[(2-methoxy-ethyl)-methyl-amino]-4-(5-methyl-1H-pyrazol-3-ylamino)-2H-phthalazin-1-one] gave an IC50 of 50 to 500 nM.
On the same count and under the same terms, with `Cc1cc(Nc2nn(C(C)C)c(=O)c3cc(N(C)CCN(C)C)ccc23)n[nH]1` [Example B-3, 7-[(2-Dimethylamino-ethyl)-methyl-amino]-2-isopropyl-4-(5-methyl-1H-pyrazol-3-ylamino)-2H-phthalazin-1-one] the figure was 50 to 500 nM; with `CSCCSc1ccc2c(Nc3cc(C)[nH]n3)nn(C(C)C)c(=O)c2c1` [Example C-1, 2-Isopropyl-4-(5-methyl-1H-pyrazol-3-ylamino)-7-(2-methylsulfanyl-ethylsulfanyl)-2H-phthalazin-1-one], 296 nM.
Regarding `Cc1cc(Nc2nn(C(C)C)c(=O)c3cc(S(=O)(=O)CCS(C)(=O)=O)ccc23)n[nH]1` [Example C-2, 2-Isopropyl-7-(2-methanesulfonyl-ethanesulfonyl)-4-(5-methyl-1H-pyrazol-3-ylamino)-2H-phthalazin-1-one], the IC50 is 10 nM at mutant Aurora A kinase and 500 to 2500 nM in the experiment with HCT 116 cells (Homo sapiens, HCT-116, 120 h).
Regarding `Cc1cc(Nc2nn(C(C)C)c(=O)c3cc(COCC4CC4)ccc23)n[nH]1` [Example E-1, 7-Cyclopropylmethoxymethyl-2-isopropyl-4-(5-methyl-1H-pyrazol-3-ylamino)-2H-phthalazin-1-one], in the experiment with HCT 116 cells (Homo sapiens, HCT-116, 120 h), the IC50 fell in the range of 50 to 500 nM.
`Cc1cc(Nc2nn(C(C)C)c(=O)c3cc(COCc4cccnc4)ccc23)n[nH]1` [Example E-2, 2-Isopropyl-4-(5-methyl-1H-pyrazol-3-ylamino)-7-(pyridin-3-ylmethoxymethyl)-2H-phthalazin-1-one] returned an IC50 in the experiment on HCT 116 cells (Homo sapiens, HCT-116, 120 h) of 50 to 500 nM.
On to `Cc1cc(Nc2nn(C(C)C)c(=O)c3cc(COCCN4CCOCC4)ccc23)[nH]n1` [Example E-3, 2-Isopropyl-4-(5-methyl-2H-pyrazol-3-ylamino)-7-(2-morpholin-4-yl-ethoxymethyl)-2H-phthalazin-1-one], for which the IC50 was 16 nM at mutant Aurora A kinase and 500 to 2500 nM in the experiment on HCT 116 cells (Homo sapiens, HCT-116, 120 h).
`CSCc1ccc2c(Nc3cc(C)[nH]n3)nn(C(C)C)c(=O)c2c1` [Example F-1, 2-Isopropyl-4-(5-methyl-1H-pyrazol-3-ylamino)-7-methylsulfanylmethyl-2H-phthalazin-1-one] yielded an IC50 in the experiment with HCT 116 cells (Homo sapiens, HCT-116, 120 h) of 50 to 500 nM.
On the same count and under the same terms, with `Cc1cc(Nc2nn(C(C)C)c(=O)c3cc(CS(C)(=O)=O)ccc23)n[nH]1` [Example F-2, 2-Isopropyl-7-methanesulfonylmethyl-4-(5-methyl-1H-pyrazol-3-ylamino)-2H-phthalazin-1-one] the figure was 500 to 2500 nM.
Still for that read-out and setting: with `COCC(=O)N(C)c1ccc2c(Nc3cc(C)[nH]n3)nn(C(C)C)c(=O)c2c1` [Example G-1, N-[3-Isopropyl-1-(5-methyl-1H-pyrazol-3-ylamino)-4-oxo-3,4-dihydro-phthalazin-6-yl]-2-methoxy-N-methyl-acetamide] the figure was 50 to 500 nM; with `COCC(=O)N(C)c1ccc2c(Nc3cc(C)[nH]n3)nn(Cc3cc(F)cc(F)c3)c(=O)c2c1` [Example G-2, N-[3-(3,5-Difluoro-benzyl)-1-(5-methyl-1H-pyrazol-3-ylamino)-4-oxo-3,4-dihydro-phthalazin-6-yl]-2-methoxy-N-methyl-acetamide], 500 to 2500 nM.

As a reminder, the IC50 is the concentration needed to halve the response being measured.
